Assays:
KRas G12V = KRas G12V (Homo sapiens, UniProt P01116, G12V); test: biochemical;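 note: KRas binding measured by TR-FRET displacement at room temperature, IC50 fitted from percent of control values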
Procedure: (§5) The ability of a compound to bind to KRas was measured using a TR-FRET displacement assay. […] After a 60-minute incubation at room temperature, the reaction was measured using a BMG LABTECH CLARIO star Plus via TR-FRET. […] The POC values were fit to a 4-parameter IC50 equation and the IC50 value reported.

KRas G12D = KRas G12D (Homo sapiens, UniProt P01116, G12D); test: biochemical;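 note: TR-FRET displacement binding assay on KRas, read after a one-hour incubation at room temperature, IC50 fitted from percent-of-control values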
Procedure: as §5

KRas G12R = KRas G12R (Homo sapiens, UniProt P01116, G12R); test: biochemical;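 note: TR-FRET displacement assay of compound binding to KRas, read after one hour at room temperature, potency from a four-parameter fit of percent-of-control values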
Chain of KRas G12R (P01116 1-169 isoform P01116-2 G12R): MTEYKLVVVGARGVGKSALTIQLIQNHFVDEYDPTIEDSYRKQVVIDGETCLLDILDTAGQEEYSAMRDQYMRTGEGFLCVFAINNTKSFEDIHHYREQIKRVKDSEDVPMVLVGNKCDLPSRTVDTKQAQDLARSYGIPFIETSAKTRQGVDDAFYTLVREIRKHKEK
Procedure: as §5

pERK in PSN1 cells = test: Inhibition of KRas phosphorylation of ERK (Cisbio HTRF pERK assay); conditions: Homo sapiens, PSN1, 3 h, read-out: Inhibition (HTRF IC50) of KRas-mediated Phosphorylation of ERK, PSN1
pERK in MKN1 cells = test: as above; conditions: Homo sapiens, MKN-1, 3 h, read-out: Inhibition (HTRF IC50) of KRas-mediated Phosphorylation of ERK, MKN1
[1] = tested on: phospho-ERK in NCI-H460 (Q61H) cells; test: Inhibition of KRas-mediated phosphorylation of ERK (in-cell western); assay type: cell-based; conditions: Homo sapiens, NCI-H460, 3 h, 3 hours compound, phospho-ERK normalized to GAPDH
Procedure: (§1) Diluted compounds were then added in a final concentration of 0.5% DMSO. After 3 hours, 50 μL of 4.0% formaldehyde was added and the plates incubated at room temperature for 20 minutes. The plates were then dumped and permeabilized with 150 μL of ice cold 100% methanol for 10 minutes.
(§2) The amount of phospho-ERK was determined using an antibody specific for the phosphorylated form of ERK and compared to the amount of GAPDH. […] The plates were incubated overnight at 4° C. The plates were washed 3× with 150 uL PBS+0.1% Tween 20.
(§3) The plates were washed 3× with 150 uL PBS+0.1% Tween 20. Plates were imaged dry on a Li-COR Odyssey CLX plate reader.
(§4) The phospho-ERK (Thr202/Tyr204) signal was normalized to the GAPDH signal for each well and percent of DMSO control values were calculated. IC50 values were generated using a 4-parameter fit of the dose response curve.

[2] = tested on: phospho-ERK in NCI-H727 (G12V) cells; test: as above; assay type: cell-based; conditions: Homo sapiens, NCI-H727, 3 h, 3 hours compound, phospho-ERK normalized to GAPDH
Procedure: as §1, §2, §3, §4

[3] = tested on: phospho-ERK in AsPC-1 (G12D) cells; test: as above; assay type: cell-based; conditions: Homo sapiens, ASPC1, 3 h, 3 hours compound, phospho-ERK normalized to GAPDH
Procedure: as §1, §2, §3, §4

Chain of KRas G12V (P01116 1-169 isoform P01116-2 G12V): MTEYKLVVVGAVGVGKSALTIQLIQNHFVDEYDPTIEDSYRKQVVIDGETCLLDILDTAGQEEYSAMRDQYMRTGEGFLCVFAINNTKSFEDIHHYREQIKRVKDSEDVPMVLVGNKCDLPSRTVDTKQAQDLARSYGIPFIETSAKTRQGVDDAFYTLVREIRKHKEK
Chain of KRas G12D (P01116 1-169 isoform P01116-2 G12D): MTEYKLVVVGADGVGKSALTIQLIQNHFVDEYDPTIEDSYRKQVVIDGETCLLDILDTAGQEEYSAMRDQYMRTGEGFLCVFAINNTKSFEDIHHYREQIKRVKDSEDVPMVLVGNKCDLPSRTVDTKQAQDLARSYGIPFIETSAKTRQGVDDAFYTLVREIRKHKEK

IC50 (KRas G12V) [nM] | IC50 (KRas G12D) [nM] | IC50 (KRas G12R) [nM] | IC50 (pERK in PSN1 cells) [nM] | IC50 (pERK in MKN1 cells) [nM] | Structure (SMILES) | IC50 [1] [nM] | IC50 [2] [nM] | IC50 [3] [nM]
≤ 2 | ≤ 2 | ≤ 2 | ≥ 10000 | 15 | CCc1c(F)ccc2cc(O)cc(-c3ncc4c(N5CCC[C@@](C)(O)C5)nc(OC[C@@]56CCCN5C[C@H](O)C6)nc4c3F)c12 [Example 311, (2R,7aS)-7a-(((7-(8-ethyl-7-fluoro-3-hydroxynaphthalen-1-yl)-8-fluoro-4-((R)-3-hydroxy-3-methylpiperidin-1-yl)pyrido[4,3-d]pyrimidin-2-yl)oxy)methyl)hexahydro-1H-pyrrolizin-2-ol] | 501 | 2600 | 738
≤ 2 | ≤ 2 | ≤ 2 | ≥ 10000 | 29 | CCc1c(F)ccc2cc(O)cc(-c3ncc4c(N5CCC[C@@](C)(O)C5)nc(OC[C@@]56CCCN5[C@H](CO)CC6)nc4c3F)c12 [Example 304, (R)-1-(7-(8-ethyl-7-fluoro-3-hydroxynaphthalen-1-yl)-8-fluoro-2-(((3S,7aS)-3-(hydroxymethyl)hexahydro-1H-pyrrolizin-7a-yl)methoxy)pyrido[4,3-d]pyrimidin-4-yl)-3-methylpiperidin-3-ol] | 804 | 2580 | 1370
≤ 2 | 3 | ≤ 2 | ≥ 10000 | 7 | CCc1c(F)ccc2cc(O)cc(-c3ncc4c(NCc5ccc(=O)n(C)c5)nc(OC[C@@]56CCCN5C[C@H](F)C6)nc4c3F)c12 [Example 199] | 314 | 798 | 1320
19 | 48 | 23 | ≥ 10000 | 77 | CCc1c(F)ccc2cc(O)cc(-c3ncc4c(N5CC[C@H](C)[C@@H](O)C5)nc(OC[C@@]56CCCN5C[C@H](F)C6)nc4c3F)c12 [Example 188] | 478 | 2140 | 2070
5 | 12 | 6 | ≥ 10000 | 38 | CCc1c(F)ccc2cc(O)cc(-c3ncc4c(N5C[C@H](C)C[C@@H](O)C5)nc(OC[C@@]56CCCN5C[C@H](F)C6)nc4c3F)c12 [Example 187] | 133 | 550 | 470
≤ 2 | 4 | 4 | 6900 | 10 | CCc1c(F)ccc2cc(O)cc(-c3ncc4c(N5C[C@@H](C)C[C@@H](O)C5)nc(OC[C@@]56CCCN5C[C@H](F)C6)nc4c3F)c12 [Example 180] | 113 | 623 | 205
7 | 18 | 14 | ≥ 10000 | 49 | CCc1c(F)ccc2cc(O)cc(-c3ncc4c(N5C[C@H](O)C[C@@H](F)C5)nc(OC[C@@]56CCCN5C[C@H](F)C6)nc4c3F)c12 [Example 178] | 728 | 2110 | 606
≤ 2 | 4 | ≤ 2 | ≥ 10000 | 8200 | O=C1NCC2(CCCN(c3nc(OC[C@@]45CCCN4C[C@H](F)C5)nc4c(F)c(-c5cc(O)cc6ccc(F)c(F)c56)ncc34)C2)N1 (stereo partly drawn) [Example 445, 7-(7-(7,8-difluoro-3-hydroxynaphthalen-1-yl)-8-fluoro-2-(((2R,7aS)-2-fluorohexahydro-1H-pyrrolizin-7a-yl)methoxy)pyrido[4,3-d]pyrimidin-4-yl)-1,3,7-triazaspiro[4.5]decan-2-one] | 1190 | 2930 | 1620
≤ 2 | ≤ 2 | ≤ 2 | 2850 | 9 | Oc1cc(-c2ncc3c(N4CCC[C@]5(C4)C[C@@H](O)C5)nc(OC[C@@]45CCCN4C[C@H](F)C5)nc3c2F)c2c(F)c(F)ccc2c1 (single isomer, unassigned) [Example 442] | 124 | 234 | 134
≤ 2 | 31 | 3 | ≥ 10000 | 187 | CCc1c(F)ccc2cc(O)cc(-c3ncc4c(NCc5n[nH]cc5C(N)=O)nc(OC[C@@]56CCCN5C[C@H](F)C6)nc4c3F)c12 [Example 162] | 6770 | 4170 | 4530
≤ 2 | 38 | ≤ 2 | ≥ 10000 | 39 | CCc1c(F)ccc2cc(O)cc(-c3ncc4c(NCc5ccc6nonc6c5)nc(OC[C@@]56CCCN5C[C@H](F)C6)nc4c3F)c12 [Example 175, 4-(4-((benzo[c][1,2,5]oxadiazol-5-ylmethyl)amino)-8-fluoro-2-(((2R,7aS)-2-fluorohexahydro-1H-pyrrolizin-7a-yl)methoxy)pyrido[4,3-d]pyrimidin-7-yl)-5-ethyl-6-fluoronaphthalen-2-ol] | 675 | 756 | 1720
≤ 2 | ≤ 2 | ≤ 2 | 7340 | 4 | CCc1c(F)ccc2cc(O)cc(-c3ncc4c(N5C[C@H](O)C[C@H](F)C5)nc(OC[C@@]56CCCN5C[C@H](F)C6)nc4c3F)c12 [Example 192] | 51 | 191 | 90
4 | 9 | 4 | 5850 | 15 | CCc1c(F)ccc2cc(O)cc(-c3ncc4c(N5CCC(F)(F)C(O)C5)nc(OC[C@@]56CCCN5C[C@H](F)C6)nc4c3F)c12 (some centres unmarked) [Example 191] | 230 | 714 | 665
≤ 2 | ≤ 2 | ≤ 2 | 3710 | 35 | NS(=O)(=O)CC1CCCN(c2nc(OC[C@@]34CCCN3C[C@H](F)C4)nc3c(F)c(-c4cc(O)cc5ccc(F)c(F)c45)ncc23)C1 (some centres unmarked) [Example 203] | 758 | 1270 | 8010
≤ 2 | ≤ 2 | ≤ 2 | ≥ 10000 | 358 | CCc1c(F)ccc2cc(O)cc(-c3ncc4c(N5CCC[C@@](C)(O)C5)nc(OC[C@]56CCCN5[C@@H](CO)CC6)nc4c3F)c12 [Example 303, (R)-1-(7-(8-ethyl-7-fluoro-3-hydroxynaphthalen-1-yl)-8-fluoro-2-(((3R,7aR)-3-(hydroxymethyl)hexahydro-1H-pyrrolizin-7a-yl)methoxy)pyrido[4,3-d]pyrimidin-4-yl)-3-methylpiperidin-3-ol] | 4120 | 3690 | 3290
5 | 7 | 6 | 2880 | 44 | C#Cc1c(F)ccc2cc(O)cc(-c3ncc4c(N5CCOC[C@](C)(O)C5)nc(OC[C@@]56CCCN5C[C@H](F)C6)nc4c3F)c12 (single isomer, unassigned) [Example 386] | 299 | 1020 | 1180
18 | 32 | 18 | 5540 | 29 | CCc1c(F)ccc2cc(O)cc(-c3ncc4c(N5CC[C@@H](C)[C@@H](O)C5)nc(OC[C@@]56CCCN5C[C@H](F)C6)nc4c3F)c12 [Example 189] | 377 | 1430 | 1240
17 | 29 | 10 | 6700 | 139 | CCc1c(F)ccc2cc(O)cc(-c3ncc4c(N5CCC[C@@H](O)[C@H]5C)nc(OC[C@@]56CCCN5C[C@H](F)C6)nc4c3F)c12 [Example 181] | 584 | 1610 | 1540
≤ 2 | 4 | 4 | ≥ 10000 | 786 | O=C1CC2(CCCN(c3nc(OC[C@@]45CCCN4C[C@H](F)C5)nc4c(F)c(-c5cc(O)cc6ccc(F)c(F)c56)ncc34)C2)CN1 (stereo partly drawn) [Example 446, 7-(7-(7,8-difluoro-3-hydroxynaphthalen-1-yl)-8-fluoro-2-(((2R,7aS)-2-fluorohexahydro-1H-pyrrolizin-7a-yl)methoxy)pyrido[4,3-d]pyrimidin-4-yl)-2,7-diazaspiro[4.5]decan-3-one] | 2190 | 2500 | 3670
